Assay results from PubChem BioAssay AID624129 (Sanford-Burnham Center for Chemical Genomics, 2012).
pIC50: −log10 of the molar value. The source made the active and inactive calls. How the calls were made is not given here.

How the values were obtained:
Test in all cases: potency against CXCR6 with APJ panel – cell-based, beta-arrestin, DiscoveRx, uHTS hits, dose response (AID 624129)
[1] = target: C-X-C chemokine receptor type 6 (Homo sapiens) (UniProt O00574); conditions: CXCR6 beta-arrestin (DiscoveRx) antagonist cell assay
Sequence of C-X-C chemokine receptor type 6 (Homo sapiens) (O00574 whole entry, looked up): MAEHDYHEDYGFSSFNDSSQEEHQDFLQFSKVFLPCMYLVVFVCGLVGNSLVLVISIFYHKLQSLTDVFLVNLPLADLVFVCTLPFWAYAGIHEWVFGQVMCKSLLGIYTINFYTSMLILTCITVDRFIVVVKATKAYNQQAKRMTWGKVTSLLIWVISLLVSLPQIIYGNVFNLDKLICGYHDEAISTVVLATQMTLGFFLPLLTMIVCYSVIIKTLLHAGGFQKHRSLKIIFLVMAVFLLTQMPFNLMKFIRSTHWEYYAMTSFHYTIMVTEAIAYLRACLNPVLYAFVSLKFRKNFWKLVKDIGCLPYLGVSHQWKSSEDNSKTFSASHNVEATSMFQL

[2] = target: C-C chemokine receptor type 6 (Homo sapiens) (UniProt P51684); conditions: CXCR6 beta-arrestin (DiscoveRx) antagonist cell assay
[3] = target: Apelin receptor (Homo sapiens) (UniProt P35414); conditions: CXCR6 beta-arrestin (DiscoveRx) antagonist cell assay, APJ
[4] = target: Beta-galactosidase (Escherichia coli) (UniProt Q8VNN2); conditions: CXCR6 beta-arrestin (DiscoveRx) antagonist cell assay, b-galactosidase
Sequence of Beta-galactosidase (Escherichia coli) (Q8VNN2 whole entry, looked up): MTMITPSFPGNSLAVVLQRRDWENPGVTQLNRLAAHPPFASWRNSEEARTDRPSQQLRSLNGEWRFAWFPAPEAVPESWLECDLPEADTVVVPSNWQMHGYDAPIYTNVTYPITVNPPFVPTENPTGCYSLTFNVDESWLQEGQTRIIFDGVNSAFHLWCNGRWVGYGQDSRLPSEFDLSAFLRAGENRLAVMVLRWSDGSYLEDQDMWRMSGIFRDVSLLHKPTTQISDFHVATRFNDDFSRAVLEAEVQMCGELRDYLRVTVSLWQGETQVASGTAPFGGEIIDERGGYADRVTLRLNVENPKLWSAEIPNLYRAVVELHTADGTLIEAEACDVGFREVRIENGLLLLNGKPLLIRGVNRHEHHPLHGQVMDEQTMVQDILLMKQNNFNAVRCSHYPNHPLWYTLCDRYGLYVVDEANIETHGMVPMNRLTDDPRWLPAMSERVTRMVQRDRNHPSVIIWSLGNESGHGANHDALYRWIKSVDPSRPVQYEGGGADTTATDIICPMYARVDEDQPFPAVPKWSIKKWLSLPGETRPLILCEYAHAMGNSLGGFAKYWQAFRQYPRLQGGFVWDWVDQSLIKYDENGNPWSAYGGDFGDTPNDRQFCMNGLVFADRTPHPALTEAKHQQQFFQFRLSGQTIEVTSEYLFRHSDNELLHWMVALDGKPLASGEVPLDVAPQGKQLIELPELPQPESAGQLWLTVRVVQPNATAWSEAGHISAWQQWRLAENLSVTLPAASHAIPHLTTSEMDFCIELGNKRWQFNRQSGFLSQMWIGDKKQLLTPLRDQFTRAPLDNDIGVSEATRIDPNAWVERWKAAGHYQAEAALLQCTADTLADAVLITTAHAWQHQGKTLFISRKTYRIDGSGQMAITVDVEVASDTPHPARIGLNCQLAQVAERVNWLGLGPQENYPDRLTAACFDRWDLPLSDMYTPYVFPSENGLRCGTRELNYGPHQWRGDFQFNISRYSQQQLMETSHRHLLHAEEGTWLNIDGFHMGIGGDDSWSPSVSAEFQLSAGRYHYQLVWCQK

[5] = CXCR6, dose range 1, mean IC50 across replicates
[6] = CXCR6, run 1, dose range 2, at 80 µM (top of the series)
[7] = CCR6, dose range 1, mean IC50 across replicates
[8] = dose range 1, mean IC50 across replicates

| Structure (SMILES) | pIC50 ([1]; CXCR6, dose range 1) | pIC50 [1, 5] | inhibition [1, 6] [%] | pIC50 ([1]; CXCR6, run 2, dose range 1) | pIC50 ([2]; CCR6, dose range 1) | pIC50 [2, 7] | pIC50 ([2]; CCR6, run 2, dose range 1) | pIC50 ([3]; dose range 1) | pIC50 [3, 8] | pIC50 ([3]; run 2, dose range 1) | pIC50 ([3]; run 3, dose range 1) | IC50 ([4]; dose range 1) | pIC50 [4, 8] | IC50 ([1]; CXCR6, dose range 1) | pIC50 ([1]; CXCR6, run 1, dose range 2) | pIC50 ([1]; CXCR6, run 2, dose range 2) | inhibition ([1]; CXCR6, run 1, dose range 2, at 20 µM (top of the series)) [%] | pIC50 ([4]; dose range 1) |
| --- | --- | --- | --- | --- | --- | --- | --- | --- | --- | --- | --- | --- | --- | --- | --- | --- | --- | --- |
| O=[N+]([O-])c1ccc(S(=O)(=O)c2ccccc2)nc1 | – | < 4.10 | 19.8 | < 4.10 | – | < 4.10 | < 4.10 | – | < 4.10 | < 4.10 | < 4.10 | > 80 µM (inactive) | < 4.10 | > 80 µM (inactive) | – | – | – | – |
| COc1ccccc1C(=O)NNC(=S)NC(=O)c1cccs1 | – | 4.82 | – | 4.64 | 4.91 | 4.92 | 4.92 | 5.01 | 4.51 | 4.86 | 4.16 | > 80 µM (inactive) | < 4.10 | inactive | 5.04 | 4.97 | – | – |
| O=C1N[C@H](Cc2ccccc2)COC(=O)[C@H](Cc2ccc(F)cc2)CC/C=C/C[C@H]1CC(=O)N(CCO)Cc1ccccc1 | 5.48 | 5.27 | – | 5.14 | 5.22 | 5.15 | 5.09 | – | 5.33 | < 4.10 | 5.33 | > 80 µM (inactive) | < 4.10 | – | – | – | 67.7 | – |
| C=C1C(=O)[C@]23C[C@H]1CCC2[C@@]1(C)C(C[C@@H]3O)[C@](C)(C(=O)OC)CC[C@@H]1OC(C)=O (some centres undefined) | 5.15 | 5.15 | – | 5.27 | 5.38 | 5.33 | 5.28 | 5.02 | 4.67 | 5.06 | 4.34 | > 80 µM (inactive) | < 4.10 | – | 5.06 | 5.16 | – | – |
| COc1ccc(C[C@@H]2OC3(C=CC(=O)C=C3)O[C@H]2Cc2ccc(OC)cc2)cc1 | 5.25 | 5.25 | – | 5.37 | 5.41 | 5.40 | 5.39 | 5.09 | 5.15 | 5.16 | 5.21 | > 80 µM (inactive) | < 4.10 | – | 5.27 | 5.15 | – | – |
| CC(C)(C)C(=O)NC(=S)NNC(=O)c1sc2ccccc2c1Cl | – | < 4.10 | 63.6 | < 4.10 | – | 4.47 | 4.47 | 4.61 | 4.74 | 4.82 | 4.83 | > 80 µM (inactive) | < 4.10 | > 80 µM (inactive) | – | – | – | – |
| Cc1ccc2c(Cl)cc(Cl)c(O)c2n1 | 5.36 | 5.44 | – | < 4.10 | 5.47 | 5.45 | 5.42 | 5.55 | 5.30 | 5.28 | 5.15 | > 80 µM (inactive) | < 4.10 | – | 5.47 | 5.53 | – | – |
| CCc1ccccc1OCC(=O)Nc1nc(-c2cccnc2)cs1 | – | 4.96 | – | 4.77 | 5.20 | 5.16 | 5.11 | 5.07 | 4.90 | 4.92 | 4.77 | > 80 µM (inactive) | < 4.10 | inactive | 5.11 | 5.06 | – | – |
| Cc1ccc(NC(=S)N/N=C/c2ccc([N+](=O)[O-])s2)cc1 | 5.04 | 5.13 | – | 5.05 | 5.41 | 5.30 | 5.20 | 5.03 | 4.72 | 4.74 | 4.52 | – | 4.50 | – | 5.25 | 5.21 | – | 4.50 |
| N=C1S/C(=C\c2ccco2)C(=O)N1c1nccs1 | 4.98 | 5.05 | – | 5.02 | 5.09 | 5.07 | 5.05 | 5.07 | 4.98 | 4.91 | 4.97 | > 80 µM (inactive) | < 4.10 | – | 5.19 | 5.02 | – | – |
| CCOc1ccc(NCC(=O)c2ccc(C)cc2)cc1 | – | 4.68 | 38.7 | < 4.10 | 4.85 | 4.79 | 4.74 | 4.68 | 4.61 | 4.55 | < 4.10 | > 80 µM (inactive) | < 4.10 | inactive | – | – | – | – |
| COc1ccc(C(=O)N/N=C(\C)c2ccccn2)cc1OC | 5.59 | 5.70 | – | 5.58 | 5.69 | 5.62 | 5.57 | 5.74 | 5.62 | 5.61 | 5.54 | > 80 µM (inactive) | < 4.10 | – | 5.78 | 5.94 | – | – |

Next, values leading:

| pIC50 ([1]; CXCR6, dose range 1) | pIC50 [1, 5] | inhibition [1, 6] [%] | pIC50 ([1]; CXCR6, run 2, dose range 1) | pIC50 ([2]; CCR6, dose range 1) | pIC50 [2, 7] | pIC50 ([2]; CCR6, run 2, dose range 1) | pIC50 ([3]; dose range 1) | pIC50 [3, 8] | pIC50 ([3]; run 2, dose range 1) | pIC50 ([3]; run 3, dose range 1) | IC50 ([4]; dose range 1) | pIC50 [4, 8] | IC50 ([1]; CXCR6, dose range 1) | pIC50 ([1]; CXCR6, run 1, dose range 2) | pIC50 ([1]; CXCR6, run 2, dose range 2) | inhibition ([1]; CXCR6, run 1, dose range 2, at 20 µM (top of the series)) [%] | pIC50 ([4]; dose range 1) | Structure (SMILES) |
| --- | --- | --- | --- | --- | --- | --- | --- | --- | --- | --- | --- | --- | --- | --- | --- | --- | --- | --- |
| 5.35 | 5.38 | 90.2 | 5.41 | 5.60 | 5.57 | 5.53 | 5.49 | 5.42 | 5.31 | 5.48 | > 80 µM (inactive) | < 4.10 | – | – | – | – | – | Oc1c(Cl)cc(Cl)c2cccnc12 |
| – | 4.45 | 102 | 4.60 | 4.65 | 4.71 | 4.78 | 4.67 | 4.64 | < 4.10 | 4.61 | inactive | 4.29 | inactive | – | – | – | – | COc1ccc([N+](=O)[O-])c(S(=O)(=O)c2ccccc2)n1 |
| – | < 4.10 | -15.6 | < 4.10 | – | < 4.10 | < 4.10 | – | < 4.10 | < 4.10 | < 4.10 | > 80 µM (inactive) | < 4.10 | > 80 µM (inactive) | – | – | – | – | CN(C(=O)CSC1=Nc2ccccc2C2=NC(c3ccccc3)C(=O)N12)C1CCCCC1 (centres undefined) |
| 5.04 | 5.06 | – | 4.84 | 5.57 | 5.44 | 5.33 | 5.26 | 5.13 | 5.03 | < 4.10 | > 80 µM (inactive) | < 4.10 | – | 5.37 | 5.17 | – | – | CCCOc1cccc(-c2cc(C(=O)N/N=C/c3ccccn3)c3ccccc3n2)c1 |
| – | 4.92 | – | 4.84 | 4.96 | 4.98 | 5.00 | 4.91 | 4.90 | 4.77 | 5.07 | – | 4.39 | inactive | 5.11 | 4.85 | – | 4.39 | FC(F)(F)c1cnc(NNC(=S)Nc2ccc(Cl)cc2)c(Cl)c1 |
| – | 4.74 | – | 4.53 | 4.86 | 4.79 | 4.73 | 4.62 | 4.67 | 4.79 | 4.62 | – | 4.47 | inactive | 5.01 | 5.07 | – | 4.47 | C/C(=N\NC(=O)Cn1c(-c2ccccn2)nc2ccccc21)c1ccccc1 |
| – | 4.61 | – | 4.28 | 5.15 | 5.01 | 4.90 | – | < 4.10 | < 4.10 | < 4.10 | > 80 µM (inactive) | < 4.10 | inactive | 5.21 | 5.22 | – | – | Cc1cc(Cl)n2c(nc3cc(F)c(F)cc32)c1C#N |
| 5.75 | 5.57 | – | 5.47 | 5.79 | 5.76 | 5.73 | 5.20 | 5.06 | 5.36 | 4.82 | – | 4.46 | – | 5.52 | 5.58 | – | 4.46 | O=[N+]([O-])c1c(Nc2ccc(O)cc2)cc(Cl)c2nonc12 |
| 5.05 | 5.14 | – | 5.10 | 5.17 | 5.12 | 5.08 | 5.10 | 5.07 | 5.06 | 5.06 | > 80 µM (inactive) | < 4.10 | – | 5.25 | 5.21 | – | – | CC(Oc1cccc(Cl)c1)C(=O)Nc1nc(-c2ccccn2)cs1 (centres undefined) |
| 5.72 | 5.81 | – | 5.68 | 6.00 | 5.84 | 5.73 | 5.61 | 5.51 | 5.49 | 5.45 | > 80 µM (inactive) | < 4.10 | – | 5.97 | 5.94 | – | – | Cc1[nH]n(-c2ccccc2)c(=S)c1C=NCCCN=Cc1c(C)[nH]n(-c2ccccc2)c1=S |
